Values joined by “and” are separate entries in the source; they are usually repeats but may differ in a detail not shown here. Equal entries are not always repeated. Toxic doses and inconclusive results are not listed. The calls were made as follows: active = survival T/C of 150% or more; inactive = T/C below 125% in these data.
Tested on: P388 leukemia ip, CD2F1 mice, survival T/C
Experiment: NCI In Vivo Anticancer Drug Screen. Data for tumor model P388 Leukemia (intraperitoneal) in CD2F1 (CDF1) mice
Conditions: endpoint: median survival time, higher = longer survival
Outline: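 Mice carrying the transplanted tumor received test compound or vehicle. Survival was recorded in each group, and the value is the treated-group measurement divided by that of the vehicle-treated control group.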

[1] = dose: 100.0 mg/kg/injection, schedule: Q04DX003 (ip), vehicle: saline with Tween-80
[2] = dose: 200.0 mg/kg/injection, schedule: Q04DX003 (ip), vehicle: saline with Tween-80
[3] = dose: 60.0 mg/kg/injection, schedule: Q01DX005 (ip), vehicle: saline with Tween-80
[4] = dose: 120.0 mg/kg/injection, schedule: Q01DX005 (ip), vehicle: saline with Tween-80
[5] = dose: 240.0 mg/kg/injection, schedule: Q01DX005 (ip), vehicle: saline with Tween-80
[6] = dose: 12.5 mg/kg/injection, schedule: Q01DX009 (ip), vehicle: water
[7] = dose: 25.0 mg/kg/injection, schedule: Q01DX009 (ip), vehicle: water
[8] = dose: 50.0 mg/kg/injection, schedule: Q01DX009 (ip), vehicle: water
[9] = dose: 100.0 mg/kg/injection, schedule: Q01DX009 (ip), vehicle: water
[10] = dose: 200.0 mg/kg/injection, schedule: Q01DX009 (ip), vehicle: water
[11] = dose: 50.0 mg/kg/injection, schedule: Q04DX002 (ip), vehicle: saline with Tween-80
[12] = dose: 100.0 mg/kg/injection, schedule: Q04DX002 (ip), vehicle: saline with Tween-80
[13] = dose: 200.0 mg/kg/injection, schedule: Q04DX002 (ip), vehicle: saline with Tween-80
[14] = dose: 50.0 mg/kg/injection, schedule: Q01DX005 (ip), vehicle: Klucel (hydroxypropylcellulose) (HPC)
[15] = dose: 100.0 mg/kg/injection, schedule: Q01DX005 (ip), vehicle: Klucel (hydroxypropylcellulose) (HPC)
[16] = dose: 200.0 mg/kg/injection, schedule: Q01DX005 (ip), vehicle: Klucel (hydroxypropylcellulose) (HPC)
[17] = dose: 12.5 mg/kg/injection, schedule: Q01DX009 (ip), vehicle: saline
[18] = dose: 25.0 mg/kg/injection, schedule: Q01DX009 (ip), vehicle: saline
[19] = dose: 50.0 mg/kg/injection, schedule: Q01DX009 (ip), vehicle: saline
[20] = dose: 50.0 mg/kg/injection, schedule: Q01DX009 (ip), vehicle: saline with Tween-80
[21] = dose: 100.0 mg/kg/injection, schedule: Q01DX009 (ip), vehicle: saline with Tween-80
[22] = dose: 200.0 mg/kg/injection, schedule: Q01DX009 (ip), vehicle: saline with Tween-80

Measured: T/C

COc1cc(C=C(C(C)=O)C(C)=O)ccc1O
inactive: dose: 50.0 mg/kg/injection, schedule: Q04DX003 (ip), vehicle: saline with Tween-80 100 % of control | [1] 100 % of control | [2] 100 % of control

Cc1ccc([N+]([O-])=NC#N)cc1
inactive: dose: 7.5 mg/kg/injection, schedule: Q04DX003 (ip), vehicle: Klucel (hydroxypropylcellulose) (HPC) 97 % of control | dose: 15.0 mg/kg/injection, schedule: Q04DX003 (ip), vehicle: Klucel (hydroxypropylcellulose) (HPC) 100 % of control | dose: 30.0 mg/kg/injection, schedule: Q04DX003 (ip), vehicle: Klucel (hydroxypropylcellulose) (HPC) 112 % of control

CC(C)(O)[C@H]1[C@@H]2OC(=O)[C@H]1[C@]1(O)C[C@H]3OC34C(=O)O[C@H]2[C@@]41C (stereo not given in full) (tested in a mixture with another compound)
inactive: dose: 0.25 mg/kg/injection, schedule: Q01DX009 (ip), vehicle: Klucel (hydroxypropylcellulose) (HPC) 99 % of control | dose: 0.5 mg/kg/injection, schedule: Q01DX009 (ip), vehicle: Klucel (hydroxypropylcellulose) (HPC) 113 % of control | dose: 1.0 mg/kg/injection, schedule: Q01DX009 (ip), vehicle: Klucel (hydroxypropylcellulose) (HPC) 100 % of control | dose: 2.0 mg/kg/injection, schedule: Q01DX009 (ip), vehicle: Klucel (hydroxypropylcellulose) (HPC) 96 % of control | dose: 25.0 mg/kg/injection, schedule: Q01DX009 (ip), vehicle: Klucel (hydroxypropylcellulose) (HPC) 99 % of control | dose: 50.0 mg/kg/injection, schedule: Q01DX009 (ip), vehicle: Klucel (hydroxypropylcellulose) (HPC) 105 % of control | dose: 100.0 mg/kg/injection, schedule: Q01DX009 (ip), vehicle: Klucel (hydroxypropylcellulose) (HPC) 106 % of control | dose: 200.0 mg/kg/injection, schedule: Q01DX009 (ip), vehicle: Klucel (hydroxypropylcellulose) (HPC) 96 % of control

CCCCCC/C=C/C1CC(=O)OC1=O (stereo not given)
inactive: [1] 95 % of control

Cn1c(O)c(N=NC(N)=S)c2ccccc21
inactive: [1] 95 % of control | [2] 87 % of control

CCCSC(=O)Nc1cc(OC)ccc1OC
inactive: [3] 98 % of control | [4] 98 % of control | [5] 104 % of control

COP(=O)(N/N=C/C(=O)O)OC
inactive: [6] 104 % of control | [7] 103 % of control | [8] 101 % of control | [9] 96 % of control | [10] 95 % of control

CN(C)c1nc(NC=O)nc(N(C)C)n1
inactive: [11] 99 % of control | [12] 99 % of control | [13] 100 % of control

C=C1CCC2C(C)(CCC(O)C2(C)C(=O)O)C1CCc1ccoc1 (stereo not given)
inactive: dose: 20.0 mg/kg/injection, schedule: Q01DX005 (ip), vehicle: other 95 % of control | dose: 40.0 mg/kg/injection, schedule: Q01DX005 (ip), vehicle: other 100 % of control | dose: 80.0 mg/kg/injection, schedule: Q01DX005 (ip), vehicle: other 103 % of control | dose: 160.0 mg/kg/injection, schedule: Q01DX005 (ip), vehicle: other 95 % of control

O=C(Cc1nc2ccccc2s1)Nc1ccc2ccccc2c1
inactive: [3] 107 % of control | [4] 106 % of control

CN1C(=O)/C(=C2\SC(=O)N(CN3CCOCC3)C2=O)c2cc(Br)ccc21
inactive: [14] 88 % of control | [15] 89 % of control | [16] 97 % of control

NC(=O)C(Cl)Cn1ccnc1 (stereo not given)
inactive: dose: 50.0 mg/kg/injection, schedule: Q04DX003 (ip), vehicle: saline 103 % of control | dose: 100.0 mg/kg/injection, schedule: Q04DX003 (ip), vehicle: saline 100 % of control | dose: 200.0 mg/kg/injection, schedule: Q04DX003 (ip), vehicle: saline 110 % of control

CSCCC(C(=O)O)N1C(=O)C=CC1=O (stereo not given)
inactive: dose: 11.25 mg/kg/injection, schedule: Q01DX009 (ip), vehicle: saline with Tween-80 97 % of control | dose: 22.5 mg/kg/injection, schedule: Q01DX009 (ip), vehicle: saline with Tween-80 97 % of control | dose: 45.0 mg/kg/injection, schedule: Q01DX009 (ip), vehicle: saline with Tween-80 100 % of control and 88 % of control

C1CNC(CCNCCSCCNCCC2=NCCN2)=N1
inactive: [17] 100 % of control | [18] 96 % of control | [19] 100 % of control

CC(c1ccccc1)n1ccnc1CO (stereo not given)
inactive: [3] 103 % of control | [4] 107 % of control | [5] 110 % of control

CC(=O)OC(CC(=O)CC(O)(C(F)(F)F)C(F)(F)F)(C(F)(F)F)C(F)(F)F
inactive: dose: 6.25 mg/kg/injection, schedule: Q04DX003 (ip), vehicle: saline 104 % of control | dose: 12.5 mg/kg/injection, schedule: Q04DX003 (ip), vehicle: saline 90 % of control

COc1ccc(C2(c3ccc(OC)cc3)N=C(N(C)C)NC2=O)cc1
inactive: [11] 102 % of control | [12] 97 % of control | [13] 94 % of control

COc1ccc(CC2(OC(C)=O)N=NC(C)(C)O2)cc1 (stereo not given)
inactive: [14] 103 % of control | [15] 98 % of control | [16] 98 % of control

O=C(O)C12CC3CC(CC(C3)C1)C2.O=C(O)C12CC3CC(CC(C3)C1)C2.O=C(O)C12CC3CC(CC(C3)C1)C2.O=C(O)C12CC3CC(CC(C3)C1)C2.[Rh].[Rh]
inactive: [17] 94 % of control | [18] 91 % of control and 93 % of control | [19] 100 % of control and 88 % of control | dose: 50.0 mg/kg/injection, schedule: Q01DX009 (ip), vehicle: suspension in saline 101 % of control | dose: 100.0 mg/kg/injection, schedule: Q01DX009 (ip), vehicle: saline 91 % of control | dose: 100.0 mg/kg/injection, schedule: Q01DX009 (ip), vehicle: suspension in saline 120 % of control | dose: 200.0 mg/kg/injection, schedule: Q01DX009 (ip), vehicle: suspension in saline 108 % of control

COC(=O)/C=N/NS(=O)(=O)c1cccc(N)c1
inactive: [6] 99 % of control | [7] 107 % of control | [8] 92 % of control | [9] 99 % of control and 102 % of control | [10] 98 % of control

CC1(C)OC2OC(CN=NNc3ccc([N+](=O)[O-])cc3)C3OC(C)(C)OC3C2O1 (stereo not given)
inactive: dose: 60.0 mg/kg/injection, schedule: Q01DX005 (ip), vehicle: Klucel + Tween-80 100 % of control | dose: 120.0 mg/kg/injection, schedule: Q01DX005 (ip), vehicle: Klucel + Tween-80 91 % of control | dose: 240.0 mg/kg/injection, schedule: Q01DX005 (ip), vehicle: Klucel + Tween-80 87 % of control

c1cc2[nH]c3ccncc3c2cn1
inactive: dose: 25.0 mg/kg/injection, schedule: Q01DX009 (ip), vehicle: saline with Tween-80 102 % of control | [20] 105 % of control

CNc1ccccc1C(=O)NN=C1c2ccccc2-c2ccccc21
inactive: [20] 100 % of control | [21] 106 % of control | [22] 99 % of control

COc1ccc(/C=C2/Oc3c(Br)c(OC)cc(OC)c3C2=O)cc1
inactive: dose: 25.0 mg/kg/injection, schedule: Q01DX005 (ip), vehicle: Klucel (hydroxypropylcellulose) (HPC) 98 % of control | [14] 98 % of control | [15] 96 % of control | [16] 97 % of control

CC(C)(C)N1CCC1C(=O)O (stereo not given)
inactive: [20] 92 % of control | [21] 94 % of control | [22] 88 % of control | dose: 400.0 mg/kg/injection, schedule: Q01DX009 (ip), vehicle: saline with Tween-80 87 % of control

O=c1[nH]c(=O)n(C2OC(CO)C(O)C2O)cc1Br (stereo not given)
inactive: dose: 50.0 mg/kg/injection, schedule: Q01DX005 (ip), vehicle: saline 97 % of control | dose: 100.0 mg/kg/injection, schedule: Q01DX005 (ip), vehicle: saline 101 % of control | dose: 200.0 mg/kg/injection, schedule: Q01DX005 (ip), vehicle: saline 102 % of control

O=c1[nH]c(Cl)nc2n[nH]c(Br)c12
inactive: dose: 100.0 mg/kg/injection, schedule: Q01DX001 (ip), vehicle: saline with Tween-80 98 % of control | dose: 200.0 mg/kg/injection, schedule: Q01DX001 (ip), vehicle: saline with Tween-80 103 % of control

Reference: PubChem BioAssay AID330 (DTP/NCI, 2004)
